≈ marks a conversion by molar mass, not a printed value.
Legend:
Hefe 5060 = assay: MIC (MHK) determination; assay type: cell-based; details: read-out: MHK-Werte
Cercospora beticola 71 = assay: MIC (MHK) determination; assay type: cell-based; details: read-out: MHK-Werte
[1] = solvents in which the substance dissolves, in words
[2] = test system: Penicillium digitatum 135; assay: MIC (MHK) determination; assay type: cell-based; details: read-out: MHK-Werte
Saccharomyces cerevisiae = assay: MIC (MHK) determination; assay type: cell-based; details: read-out: MHK-Werte
[3] = test system: Trichophyton mentagrophytes; assay: MIC (MHK) determination; assay type: cell-based; details: read-out: MHK-Werte
Alternaria solani 5 = assay: MIC (MHK) determination; assay type: cell-based; details: read-out: MHK-Werte
Candida albicans = assay: MIC (MHK) determination; assay type: cell-based; details: read-out: MHK-Werte
E. coli 9632 = assay: MIC (MHK) determination; assay type: cell-based; details: Escherichia coli, read-out: MHK-Werte
Botrytis cinerea 16 = assay: MIC (MHK) determination; assay type: cell-based; details: read-out: MHK-Werte
Botrytis cinerea 47 = assay: MIC (MHK) determination; assay type: cell-based; details: read-out: MHK-Werte
Pyricularia oryzae 154 = assay: microbe, parasite or virus in culture; assay type: cell-based; details: Pyricularia oryzae, 154, read-out: MHK-Werte
Botrytis cinerea 57 = assay: MIC (MHK) determination; assay type: cell-based; details: read-out: MHK-Werte
Cladosporuim resinae = assay: MIC (MHK) determination; assay type: cell-based; details: read-out: MHK-Werte
Aspergillus niger = assay: MIC (MHK) determination; assay type: cell-based; details: read-out: MHK-Werte
Staph. aureus 209 P = assay: MIC (MHK) determination; assay type: cell-based; details: Staphylococcus aureus, read-out: MHK-Werte
Fusarium culmorum 100 = assay: MIC (MHK) determination; assay type: cell-based; details: read-out: MHK-Werte

Structure (SMILES)	MIC (Hefe 5060) [µg/mL]	MIC (Cercospora beticola 71) [µg/mL]	Löslichkeit [1]	MIC [2] [µg/mL]	MIC (Saccharomyces cerevisiae) [µg/mL]	MIC [3] [µg/mL]	MIC (Alternaria solani 5) [µg/mL]	MIC (Candida albicans) [µg/mL]	MIC (E. coli 9632) [µg/mL]	MIC (Botrytis cinerea 16) [µg/mL]	MIC (Botrytis cinerea 47) [µg/mL]	MIC (Pyricularia oryzae 154) [µg/mL]	MIC (Botrytis cinerea 57) [µg/mL]	MIC (Cladosporuim resinae) [µg/mL]	MIC (Aspergillus niger) [µg/mL]	MIC (Staph. aureus 209 P) [µg/mL]	MIC (Fusarium culmorum 100) [µg/mL]
COC(C/C=C\C=C\CC/C=C/CC(C)/C=C/C(=C/C(=O)O)CC(=O)O)/C(C)=C\C=C(/C)C(=O)O (stereo not drawn) [Isobongkrekinsäure, 3-Carboxymethyl-17-methoxy-6,18,21-trimethyldocosa-2E,4E,8E,12E,14Z,18Z,20E-hepta-en-1,22-disäure]	> 125	15.6 (≈ 32.1 µM)	Wäßriges Alkali, schwerlöslich in MeOH und Wasser	62.5 (≈ 128 µM)	> 125	125 (≈ 257 µM)	62.5 (≈ 128 µM)	> 125	> 125	62.5 (≈ 128 µM)	15.6 (≈ 32.1 µM)	31.2 (≈ 64.1 µM)	31.2 (≈ 64.1 µM)	250 (≈ 514 µM)	62.5 (≈ 128 µM)	125 (≈ 257 µM)	7.8 (≈ 16 µM)
COC(=O)/C=C(/C=C/C(C)C/C=C/CC/C=C/C=C\CC(OC)/C(C)=C\C=C(/C)C(=O)OC)CC(=O)OC (stereo not drawn) [Isobongkrekinsäure-trimethylester]			CHCl3, CH2Cl2,MeOH, Aceton, Äthylacetat und Petroläther														

Source: patent publication EP0326922A2 (priority 1988, dated 1989)
